Structures can show the parent of a compound that is named as a salt.
System: KB cells
Assay: Cell migration wound healing assay
Type: cell-based, Human
Details: 10 μM, 9 hours

Compound: CNC(=O)c1cc(Oc2ccc(NC(=O)Nc3ccc(Cl)c(C(F)(F)F)c3)cc2)ccn1 [Sraf, Sorafenib tosylate]
- retardation of migration of KB cells: 30±9%
- width of the wound (control 525±23 μm at 0 h): 303±27 μm
